Test results taken from patent publication US20240336627A1, “NOVEL COMPOUNDS FOR THE DIAGNOSIS OF TDP-43 PROTEINOPATHIES” (AC IMMUNE SA, priority 2021, published 2024).
Marks after values point to notes of the source that are not given here.

Molecular target: T1, Human brain derived TDP-43 aggregates (Homo sapiens, UniProt Q13148)
T1 construct: A sample of brain tissue (frontal or temporal cortex) was homogenized; from tissue; host or cells: sarkosyl-insoluble fraction of human FTD brain (frontal or temporal cortex)
T1 sequence (Q13148 whole entry): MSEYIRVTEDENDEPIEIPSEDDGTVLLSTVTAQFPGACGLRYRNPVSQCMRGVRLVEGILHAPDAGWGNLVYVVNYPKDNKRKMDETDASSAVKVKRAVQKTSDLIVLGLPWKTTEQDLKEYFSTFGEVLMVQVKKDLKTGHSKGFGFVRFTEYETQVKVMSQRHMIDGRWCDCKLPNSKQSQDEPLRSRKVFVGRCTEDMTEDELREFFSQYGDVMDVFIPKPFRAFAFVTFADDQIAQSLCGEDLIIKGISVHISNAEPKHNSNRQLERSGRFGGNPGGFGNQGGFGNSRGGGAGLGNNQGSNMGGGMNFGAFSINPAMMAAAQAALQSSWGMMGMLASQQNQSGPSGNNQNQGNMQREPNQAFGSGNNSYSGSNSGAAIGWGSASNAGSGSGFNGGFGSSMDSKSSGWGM
Test: Micro-radiobinding competition assay on human FTD sarkosyl-insoluble brain extracts
Assay type: binding
Conditions: for Ki: 0.24 nM to 2 μM test compound; for Human brain derived TDP-43 aggregates Mean % competition at 250 nM: 250 nM test compound; for Human brain derived TDP-43 aggregates Mean % competition at 2 μM: 2 μM test compound
Procedure: Human brain extracts were prepared as described in Laferriere et al., 2019, Nature Neurosc. A sample of brain tissue (frontal or temporal cortex) was homogenized at 1:4 (w/v) ratio in the homogenization-solubilization (HS) buffer at 4° C. using tissue homogenizer (Precellys) with CKmix homogenization tubes. The following sequence was used for homogenization: 3 cycles of 30 seconds at 5000 rpm (with 15 seconds pause between each cycle). Homogenized samples were aliquoted and stored at −80° C. in 1.5 mL low protein binding tubes.
Brain homogenates were thawed on ice and resuspended in HS buffer to obtain a final concentration of 2% sarkosyl, 1 unit/μL Benzonase and 1 mM MgCl2. The samples were then incubated at 37° C. under constant shaking at 600 rpm on a thermomixer for 45 minutes (min). The supernatants were collected in a new tube (sarkosyl-soluble fraction, S1). The pellet was resuspended in 1000 μL of myelin floatation buffer and centrifuged at 20,000 g for 60 min at 4° C. The supernatant was carefully removed to remove all the floating lipids. This step was repeated if all the lipids could not be removed in a single step. The pellet was subsequently washed with Phosphate-Buffered Saline (PBS) and centrifuged for 30 min at 20,000 g at 4° C. The final pellet was resuspended in 200 μL PBS and stored at −80° C. (sarkosyl-insoluble fraction). The samples were analyzed by immunoblotting in denaturing conditions.
Human FTD sarkosyl-insoluble brain extracts were spotted onto microarray slides. The slides were incubated with [^3H]-Compound 52 or [^3H]-Compound 16 ligands at 75 nM or 40 nM, respectively, and the example compounds (non-radiolabelled) at 2 μM and 250 nM. In some cases, the non-radiolabelled example compounds were further assessed for a range of different concentrations, varying from 0.24 nM to 2 μM for determination of the inhibition constant (Ki). After incubation, slides were washed and scanned by a real-time autoradiography system (BeaQuant, ai4R). Quantification of the signal was performed by using the Beamage image analysis software (ai4R). Non-specific signal was determined with an excess of non-radiolabelled compound 52 or compound 16 (2 μM) and specific binding was calculated by subtracting the non-specific signal from the total signal. Competition was calculated as percent, where 0% was defined as the specific binding in the presence of vehicle and 100% as the values obtained in the presence of excess of the non-radiolabelled compound 52 or compound 16. Ki values were calculated in GraphPad Prism7 by applying a nonlinear regression curve fit using a one site, specific binding model. Measurements were performed with at least two technical replicates in the two-concentration competition experiment and with one technical replicate in the experiments including a range of concentrations. For compounds tested in more than one experiment, the mean of the replicates or Ki values in independent experiments is reported.

[1] = radioligand [3H]-Compound 52 (75 nM)
[2] = radioligand [3H]-Compound 16 (40 nM)

Compound	Ki [1] [µM]	Human brain derived TDP-43 aggregates Mean % competition at 250 nM [1]	Human brain derived TDP-43 aggregates Mean % competition at 2 μM [1]	Human brain derived TDP-43 aggregates Mean % competition at 250 nM [2]	Human brain derived TDP-43 aggregates Mean % competition at 2 μM [2]	Ki [2] [µM]
Cn1cc(N2CCc3nc(-c4ccc(N5CC[C@@H](F)C5)nc4)sc3C2=O)cn1 [Example 1, (R)-2-(6-(3-fluoropyrrolidin-1-yl)pyridin-3-yl)-5-(1-methyl-1H-pyrazol-4-yl)-6,7-dihydrothiazolo[5,4-c]pyridin-4(5H)-one]	0.0187					
Cn1cc(N2CCc3nc(-c4ccc(N5CCC[C@@H](F)C5)nc4)sc3C2=O)cn1 [Example 2, (R)-2-(6-(3-fluoropiperidin-1-yl)pyridin-3-yl)-5-(1-methyl-1H-pyrazol-4-yl)-6,7-dihydrothiazolo[5,4-c]pyridin-4(5H)-one]	0.0717	61.0ª %	92.5ª %			
Cn1cc(N2CCc3nc(-c4ccc(N5CC[C@H](F)C5)nc4)sc3C2=O)cn1 [Example 13]		69.4ª %	105.0ª %			
N#Cc1c(N)cccc1N1CCc2nc(-c3ccc(N4CC[C@H](F)C4)nc3)sc2C1=O [Example 21, (S)-2-amino-6-(2-(6-(3-fluoropyrrolidin-1-yl)pyridin-3-yl)-4-oxo-6,7-dihydrothiazolo[5,4-c]pyridin-5(4H)-yl)benzonitrile]		22.7ª %	40.1ª %			
Nc1cccc(N2CCc3nc(-c4ccc(N5CC[C@@H](F)C5)nc4)sc3C2=O)c1F [Example 24]	0.11	56.9ª %	84.1ª %			
Nc1cc(N2CCc3nc(-c4ccc(N5CC[C@@H](F)C5)nc4)sc3C2=O)ccc1F [Example 25]		66.6ª %	83.0ª %			
Cn1cc(N2CCc3nc(-c4ccc(N5CC[C@@H](F)C5)cc4)sc3C2=O)cn1 [Example 27]	0.128	54.3ª %	80.2ª %			
Cn1cc(N2CCc3nc(-c4ccc(N5CC[C@H](F)C5)cc4)sc3C2=O)cn1 [Example 28]	0.111	56.5ª %	79.7ª %			
Nc1cc(N2CCc3nc(-c4cnc(N5CC[C@@H](F)C5)cn4)sc3C2=O)ccc1F [Example 35]		53.0ª %	74.6ª %			
Nc1cc(N2CCc3nc(-c4cnc(N5CCC[C@H](F)C5)cn4)sc3C2=O)ccc1F [Example 36]		51.0ª %				
Nc1cc(N2CCc3nc(-c4cnc(N5CC[C@H](F)C5)cn4)sc3C2=O)ccc1F [Example 37]	0.0799	54.3ª %	74.9ª %			
Nc1cccc(N2CCc3nc(-c4cnc(N5CC[C@@H](F)C5)cn4)sc3C2=O)c1F [Example 38]	0.114	46.3ª %	74.0ª %			
N#Cc1c(N)cccc1N1CCc2nc(-c3cnc(N4CCC(F)CC4)cn3)sc2C1=O [Example 39]				64.5^c %	77.4^c %	0.148
N#Cc1c(N)cccc1N1CCc2nc(-c3cnc(N4CC[C@@H](F)C4)cn3)sc2C1=O [Example 40]				54.6^c %	77.9^c %	0.104

The next lines start with the values.

Ki [1] [µM]	Human brain derived TDP-43 aggregates Mean % competition at 250 nM [1]	Human brain derived TDP-43 aggregates Mean % competition at 2 μM [1]	Human brain derived TDP-43 aggregates Mean % competition at 250 nM [2]	Human brain derived TDP-43 aggregates Mean % competition at 2 μM [2]	Ki [2] [µM]	Compound
0.0731	62.2ª %	91.2ª %				Nc1cc(N2CCc3nc(-c4ccc(N5CCCC5)nc4)sc3C2=O)ccc1F [Example 3, 5-(3-amino-4-fluorophenyl)-2-(6-(pyrrolidin-1-yl)pyridin-3-yl)-6,7-dihydrothiazolo[5,4-c]pyridin-4(5H)-one]
0.0588	44.0ª %	85.7ª %				Nc1cccc(N2CCc3nc(-c4ccc(N5CCCC5)nc4)sc3C2=O)c1F [Example 14]
0.139	64.6ª %	96.4ª %				Nc1ccc(N2CCc3nc(-c4ccc(N5CCCC5)nc4)sc3C2=O)cc1F [Example 15]
0.081	46.0ª %	83.2ª %				N#Cc1c(N)cccc1N1CCc2nc(-c3ccc(N4CCCC4)nc3)sc2C1=O [Example 16, 2-amino-6-(4-oxo-2-(6-(pyrrolidin-1-yl)pyridin-3-yl)-6,7-dihydrothiazolo[5,4-c]pyridin-5(4H)-yl)benzonitrile]
	82.0ª %	95.0ª %				N#Cc1ccc(N2CCc3nc(-c4ccc(N5CCCC5)nc4)sc3C2=O)cc1N [Example 17]
0.0686	76.2ª %	102.0ª %				N#Cc1cc(N2CCc3nc(-c4ccc(N5CCCC5)nc4)sc3C2=O)ccc1N [Example 18]
0.0542	76.9ª %	92.1ª %				N#Cc1ccc(N2CCc3nc(-c4ccc(N5CC[C@@H](F)C5)nc4)sc3C2=O)cc1N [Example 19]
0.161	66.7ª %	88.3ª %				N#Cc1cc(N2CCc3nc(-c4ccc(N5CC[C@@H](F)C5)nc4)sc3C2=O)ccc1N [Example 20]
	64.2ª %	80.3ª %				N#Cc1ccc(N2CCc3nc(-c4ccc(N5CC[C@H](F)C5)nc4)sc3C2=O)cc1N [Example 22]
0.1	35.5ª %	76.1ª %				N#Cc1cc(N2CCc3nc(-c4ccc(N5CC[C@H](F)C5)nc4)sc3C2=O)ccc1N [Example 23]
0.0099	40.8ª %	70.8ª %				Nc1cc(N2CCc3nc(-c4ccc(N5CC[C@H](F)C5)nc4)sc3C2=O)ccc1F [Example 26, (S)-5-(3-amino-4-fluorophenyl)-2-(6-(3-fluoropyrrolidin-1-yl)pyridin-3-yl)-6,7-dihydrothiazolo[5,4-c]pyridin-4(5H)-one]
0.0277	42.6ª %	73.9ª %				N#Cc1cc(N2CCc3nc(-c4ccc(N5CCC[C@@H](F)C5)nc4)sc3C2=O)ccc1N [Example 29]
0.0866	55.9ª %	75.7ª %				N#Cc1ccc(N2CCc3nc(-c4ccc(N5CCC[C@@H](F)C5)nc4)sc3C2=O)cc1N [Example 30]
0.101	67.6ª %	79.7ª %				N#Cc1ccc(N2CCc3nc(-c4ccc(N5CCC[C@H](F)C5)nc4)sc3C2=O)cc1N [Example 31]
	44.0ª %	80.9ª %				N#Cc1cc(N2CCc3nc(-c4ccc(N5CCC[C@H](F)C5)nc4)sc3C2=O)ccc1N [Example 32]
0.144	52.1ª %	81.0ª %				Nc1cc(N2CCc3nc(-c4ccc(N5CCC[C@H](F)C5)nc4)sc3C2=O)ccc1F [Example 33]
	72.8ª %	67.9ª %				Nc1cc(N2CCc3nc(-c4ccc(N5CCCC5)cn4)sc3C2=O)ccc1F [Example 34]
